Values of other authors in patent US7858379B2, “Apparatus and method for determining the concentration of iodine-containing organic compounds in an aqueous solution” (Lynntech, Inc., priority 2007, dated 2010).

Columns and labels:
[1] = through the process of glomerular filtration

protein binding	excretion [1]	SMILES
do not bind to protein	totally excreted by the kidney	CC(=O)N(CC(O)CO)c1c(I)c(C(=O)NCC(O)CO)c(I)c(C(=O)NCC(O)CO)c1I (stereo not shown) [Iohexol]
do not bind to protein	totally excreted by the kidney	CNC(=O)c1c(I)c(NC(C)=O)c(I)c(C(=O)O)c1I [Iothalamate]
